Assay results from patent US10376481B2, “Compounds and methods for inhibiting NHE-mediated antiport in the treatment of disorders associated with fluid retention or salt overload and gastrointestinal tract disorders” (ARDELYX, INC, priority 2012, dated 2019).

How the values were obtained:
[1] = Fecal recovery; assay type: in vivo, Sprague Dawley rats; conditions: male, Sprague-Dawley, faeces; rat, oral gavage 1 mg/kg, collection time 48 h
Method: Three male Sprague Dawley rats were administered 1 mg/kg test compound by oral gavage. Feces were collected from study animals from 0-48 or 0-72 hours after dosing, dried by lyophilization, and homogenized. Replicate aliquots of 40-60 mg each were subjected to extraction/protein precipitation with 7:1 acetonitrile:water and centrifuged. Supernatants were diluted 1:10 in 50:50 acetonitrile:water prior to analysis by LC-MS/MS. Compound concentrations, determined by interpolation from a standard calibration curve prepared in blank feces matrix, were converted to the percentage of dosed material recovered by taking into account the total collected fecal matter. The percent recovery for each rat was reported as the mean of the calculations from replicate samples. The overall percent recovery (Fecal Recovery [%]) was reported as the mean percent recovery from three rats. Accurate quality control sample recoveries were confirmed in each run and extraction efficiency was periodically verified.

[2] = target: T1, human NHE3 (Homo sapiens, UniProt P48764); assay: Cell-based assay of NHE-3 activity (pre-incubation inhibition), human; conditions: for IC50: PS120 fibroblasts stably expressing human NHE3, 10 min pre-incubation with 0-30 μM test compound, read-out: pIC50 (human Preincubation assay) (converted); for % inhibition (human Preincubation assay): PS120 fibroblasts stably expressing human NHE3, pre-incubation with test compound
T1 sequence (P48764 26-834): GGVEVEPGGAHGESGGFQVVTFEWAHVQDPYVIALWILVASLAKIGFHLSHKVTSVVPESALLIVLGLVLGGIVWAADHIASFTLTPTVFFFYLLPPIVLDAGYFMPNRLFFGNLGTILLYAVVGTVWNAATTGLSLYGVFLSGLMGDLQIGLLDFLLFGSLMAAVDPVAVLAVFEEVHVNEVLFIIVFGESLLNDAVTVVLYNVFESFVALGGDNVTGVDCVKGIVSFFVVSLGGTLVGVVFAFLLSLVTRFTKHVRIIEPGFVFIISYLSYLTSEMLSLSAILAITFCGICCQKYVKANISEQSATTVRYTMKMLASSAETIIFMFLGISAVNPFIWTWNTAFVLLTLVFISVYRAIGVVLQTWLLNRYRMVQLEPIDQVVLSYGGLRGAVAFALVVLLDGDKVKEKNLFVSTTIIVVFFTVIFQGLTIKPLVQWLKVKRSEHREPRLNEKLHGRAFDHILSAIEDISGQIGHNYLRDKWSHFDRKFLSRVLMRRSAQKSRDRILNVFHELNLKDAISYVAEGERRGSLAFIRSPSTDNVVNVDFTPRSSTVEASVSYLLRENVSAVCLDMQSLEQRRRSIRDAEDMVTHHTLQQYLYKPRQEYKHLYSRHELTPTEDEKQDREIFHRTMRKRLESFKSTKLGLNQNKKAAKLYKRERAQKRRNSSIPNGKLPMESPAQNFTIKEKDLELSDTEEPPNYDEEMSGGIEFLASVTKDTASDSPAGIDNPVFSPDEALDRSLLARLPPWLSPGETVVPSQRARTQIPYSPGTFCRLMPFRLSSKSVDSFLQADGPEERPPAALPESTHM
Method: Rat and human NHE-3-mediated Na^+-dependent H^+ antiport was measured using a modification of the pH sensitive dye method originally reported by Paradiso (Proc. Natl. Acad. Sci. USA. (1984) 81(23): 7436-7440, which is hereby incorporated by reference in its entirety). PS120 fibroblasts stably expressing human NHE3 were obtained from Mark Donowitz (Baltimore, Md.). Opossum kidney (OK) cells were obtained from the ATCC and propagated per their instructions. The rat NHE-3 gene (GenBank M85300) was introduced into OK cells via electroporation, and cells were seeded into 96 well plates and grown overnight. Medium was aspirated from the wells then incubated for 30 min at 37° C. with NH4Cl-HEPES buffer (20 mM NH4Cl, 80 mM NaCl, 50 mM HEPES, 5 mM KCl, 2 mM CaCl2, 1 mM MgCl2, pH 7.4) containing 5 μM BCECF-AM. Cells were washed once with Ammonium free, Nat-free HEPES (100 mM choline, 50 mM HEPES, 10 mM glucose, 5 mM KCl, 2 mM CaCl2, 1 mM MgCl2, pH 7.4) and incubated in the same buffer for 10 minutes at room temperature to lower intracellular pH with 0-30 μM test compound. […] Changes in intracellular pH were monitored using a FLIPR Tetra® (Molecular Devices, Sunnyvale, Calif.) by excitation at λex 439 to 505 nm, and measuring BCECF fluorescence at λem 538 nm. The initial rate of the fluorescence ratio change was used as a measure of NHE-mediated Na^+/H^+ activity, and reported as the change in fluorescence ratio per minute. Initial rates were plotted as the average 2 or more replicates, and pIC50 values were estimated using GraphPad Prism.

[3] = target: T1, human NHE3; assay: Cell-based assay of NHE-3 activity (human NHE3 inhibition assay); design: expressed in transfected cells; host or cells: Opossum kidney (OK) cells (ATCC), electroporated; conditions: OK cells with human NHE-3 gene, BCECF pH recovery, 0-30 μM test compound; read-out: Human NHE3 pIC50 (converted)
Procedure, shortened: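 Opossum kidney cells electroporated with rat or human NHE-3, loaded with 5 μM BCECF-AM in NH4Cl-HEPES pH 7.4 for 30 min at RT, then acidified 10 min in Na+-free choline HEPES. Na+-dependent pH recovery rates from BCECF fluorescence, averaged over ≥2 replicates, gave pIC50.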

Row | Structure (SMILES) | dose excreted [1] [%] | IC50 [2] [nM] | % inhibition (human Preincubation assay) [2] | IC50 [3] [nM]
1 | N[C@@H]1CCCN([C@H]2Cc3c(Cl)cc(Cl)cc3[C@@H]2Oc2ccc(S(=O)(=O)NCCOCCOCCNC(=O)NCCCCNC(=O)NCCOCCOCCNS(=O)(=O)c3ccc(O[C@H]4c5cc(Cl)cc(Cl)c5C[C@@H]4N4CCC[C@@H](N)C4)cc3)cc2)C1 [Example 3, (S,S,R)—N,N′-(10,17-dioxo-3,6,21,24-tetraoxa-9,11,16,18-tetraazahexacosane-1,26-diyl)bis(4-((1S,2S)-2-((R)-3-aminopiperidin-1-yl)-4,6-dichloro-2,3-dihydro-1H-inden-1-yloxy)benzenesulfonamide)] | 69.2 | < 100 | C (>70%) | < 100
2 | CN(C)[C@H]1Cc2c(Cl)cc(Cl)cc2[C@@H]1Oc1ccc(S(=O)(=O)NCCOCCOCCNC(=O)CCC(C)(N)CCC(=O)NCCOCCOCCNS(=O)(=O)c2ccc(O[C@H]3c4cc(Cl)cc(Cl)c4C[C@@H]3N(C)C)cc2)cc1 [Example 11, 4-amino-N1,N7-bis(2-(2-(2-(4-((1S,2S)-4,6-dichloro-2-(dimethylamino)-2,3-dihydro-1H-inden-1-yloxy)phenylsulfonamido)ethoxy)ethoxy)ethyl)-4-methylheptanediamide] | 82.1 | < 100 | C (>70%) | < 100
3 | O=C(NCCCCNC(=O)NCCOCCOCCNS(=O)(=O)c1ccc(O[C@H]2c3cc(F)ccc3C[C@@H]2N2CCCCC2)cc1)NCCOCCOCCNS(=O)(=O)c1ccc(O[C@H]2c3cc(F)ccc3C[C@@H]2N2CCCCC2)cc1 [Example 23] |  | < 100 | C (>70%) | < 100
4 | CN(C)[C@H]1Cc2c(F)cc(Cl)cc2[C@@H]1Oc1ccc(S(=O)(=O)NCCOCCOCCNC(=O)NCCCCNC(=O)NCCOCCOCCNS(=O)(=O)c2ccc(O[C@H]3c4cc(Cl)cc(F)c4C[C@@H]3N(C)C)cc2)cc1 [Example 25] |  | < 100 | C (>70%) | < 100

Continued, values first:

Row | dose excreted [1] [%] | IC50 [2] [nM] | % inhibition (human Preincubation assay) [2] | IC50 [3] [nM] | Structure (SMILES)
5 | 87.7 | < 100 | C (>70%) | < 100 | CN(C)[C@H]1Cc2c(Cl)cc(Cl)cc2[C@@H]1Oc1ccc(S(=O)(=O)NCCOCCOCCNC(=O)NCCCCNC(=O)NCCOCCOCCNS(=O)(=O)c2ccc(O[C@H]3c4cc(Cl)cc(Cl)c4C[C@@H]3N(C)C)cc2)cc1 [Example 1, (S,S)—N,N′-(10,17-dioxo-3,6,21,24-tetraoxa-9,11,16,18-tetraazahexacosane-1,26-diyl)bis(4-((1S,2S)-4,6-dichloro-2-(dimethylamino)-2,3-dihydro-1H-inden-1-yloxy)benzenesulfonamide)]
6 | 65.7 | < 100 | C (>70%) | < 100 | CN(C)[C@H]1Cc2c(Cl)cc(Cl)cc2[C@@H]1Oc1ccc(S(=O)(=O)NCCOCCOCCNC(=O)COCC(=O)NCCOCCOCCNS(=O)(=O)c2ccc(O[C@H]3c4cc(Cl)cc(Cl)c4C[C@@H]3N(C)C)cc2)cc1 [Example 9, 2,2′-oxybis(N-(2-(2-(2-(4-((1S,2S)-4,6-dichloro-2-(dimethylamino)-2,3-dihydro-1H-inden-1-yloxy)phenylsulfonamido)ethoxy)ethoxy)ethyl)acetamide)]
7 |  | < 100 | C (>70%) | < 100 | O=C(NCCCCNC(=O)NCCOCCOCCNS(=O)(=O)c1ccc(O[C@H]2c3cc(Cl)cc(F)c3C[C@@H]2N2CCCCC2)cc1)NCCOCCOCCNS(=O)(=O)c1ccc(O[C@H]2c3cc(Cl)cc(F)c3C[C@@H]2N2CCCCC2)cc1 [Example 24]
8 | 66.8 | < 100 | C (>70%) | < 100 | O=C(NCCCCNC(=O)NCCOCCOCCNS(=O)(=O)c1ccc(O[C@H]2c3cc(Cl)cc(Cl)c3C[C@@H]2N2CC[C@@H](O)C2)cc1)NCCOCCOCCNS(=O)(=O)c1ccc(O[C@H]2c3cc(Cl)cc(Cl)c3C[C@@H]2N2CC[C@@H](O)C2)cc1 [Example 30]
9 |  | 100 to 1000 | C (>70%) | < 100 | CN(C)[C@H]1Cc2c(Cl)cc(Cl)cc2[C@@H]1Oc1ccc(S(=O)(=O)NCCOCCOCCNC(=O)C(C)(C)C(=O)NCCOCCOCCNS(=O)(=O)c2ccc(O[C@H]3c4cc(Cl)cc(Cl)c4C[C@@H]3N(C)C)cc2)cc1 [Example 36]
